The target of the assay is T1, human IL-23R (Homo sapiens, UniProt Q5VWK5).
T1 sequence (Q5VWK5 22-629): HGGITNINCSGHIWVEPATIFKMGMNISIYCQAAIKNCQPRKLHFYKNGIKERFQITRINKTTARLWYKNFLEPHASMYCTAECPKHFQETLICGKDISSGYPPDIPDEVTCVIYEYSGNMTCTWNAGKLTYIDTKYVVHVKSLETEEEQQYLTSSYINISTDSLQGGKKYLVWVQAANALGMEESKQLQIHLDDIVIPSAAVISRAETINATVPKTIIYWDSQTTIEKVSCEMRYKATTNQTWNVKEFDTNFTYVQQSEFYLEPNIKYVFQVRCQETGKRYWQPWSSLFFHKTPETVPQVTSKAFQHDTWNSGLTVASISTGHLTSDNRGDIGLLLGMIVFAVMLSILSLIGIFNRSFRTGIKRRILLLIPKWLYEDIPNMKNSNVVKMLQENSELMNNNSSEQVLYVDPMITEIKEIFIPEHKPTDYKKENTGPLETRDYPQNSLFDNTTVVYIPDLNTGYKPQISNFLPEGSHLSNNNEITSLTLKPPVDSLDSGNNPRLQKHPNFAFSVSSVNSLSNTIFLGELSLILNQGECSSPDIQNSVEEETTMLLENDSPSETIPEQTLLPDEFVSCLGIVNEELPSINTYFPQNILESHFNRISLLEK
Put plainly: biochemical. The note with it: for Emax: read-out: % displacement (hIL-23R NIuc). In short, it runs like this:
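BRET displacement of a TAMRA-labelled reference compound from N-terminal Nanoluc-IL-23R fusion protein in membranes from stably transfected HEK293 cells. Incubation 2 h at room temperature, then Nanoluc substrate was added and the TAMRA/Nanoluc ratio read. IC50 and maximal displacement came from 4-parameter logistic fits.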

This is an account of results in patent publication EP4471048A1, “PEPTIDE INHIBITORS OF INTERLEUKIN-23 RECEPTOR” (Zealand Pharma A/S, priority 2023, dated 2024).

Molecules are shown by their SMILES. *1 amine or outer side, *2 acyl side, *3 side chain or, on linkers, in order; H or OH if unused. Where a SMILES comes first, the peptide text is derived from it. Bridges are numbered along the chain shown (N, C = ends). [ ]: non-standard residue; d: D form. X23 = O=C(CCCCCc1cccnc1)N[C@@H](CCN[*:2])C(=O)[*:1]; X14 = O=C(CC[C@H](N[*:2])C(=O)[*:3])[*:1]; X8 = O=C(CC[C@@H](N[*:2])C(=O)[*:3])[*:1]; Phe(4-Me) = Cc1ccc(C[C@H](N)C(=O)O)cc1; 2Nal = N[C@@H](Cc1ccc2ccccc2c1)C(=O)O; AEF = NCCOc1ccc(C[C@H](N)C(=O)O)cc1; 3Pal = N[C@@H](Cc1cccnc1)C(=O)O; αMeL = CC(C)C[C@](C)(N)C(=O)O; Dab = NCC[C@H](N)C(=O)O

Regarding `COc1ccc(C[C@@H]2NC(=O)[C@@H]3CCC(=O)N[C@@H](CCCCNC(=O)CC[C@@H](C(=O)N[C@@H](CCCCNC(=O)Cc4ccncc4)C(N)=O)NC(=O)[C@](C)(CC(C)C)NC(=O)[C@H](Cc4ccc5ccccc5c4)NC2=O)C(=O)N[C@@H]([C@@H](C)O)C(=O)N[C@@H](C(C)C)C(=O)N[C@@H](Cc2c[nH]c4ccccc24)C(=O)N[C@@H](CCC(N)=O)C(=O)N3)cc1` [Compound 54, K(1c)(6c)^†TVWQE(6c)[Y(Me)][2-Nal][2-Me-Leu]E(1c)[K(4-pyridylacetyl)]-[NH2]], the midpoint of inhibition, the IC50, lay at 290 nM and the Emax was 105%. For `CNC(=O)[C@H](Cc1cccnc1)NC(=O)[C@H](CCN)NC(=O)[C@@H]1CCC(=O)NCCCC[C@@H]2NC(=O)CC[C@H](NC(=O)[C@H](CCC(N)=O)NC(=O)[C@H](Cc3c[nH]c4ccccc34)NC(=O)C[C@H]([C@@H](C)O)NC2=O)C(=O)N[C@@H](Cc2ccc(OCCN)cc2)C(=O)N[C@@H](Cc2ccc3ccccc3c2)C(=O)N[C@@](C)(CC(C)C)C(=O)N1` [Compound 97, K(1c)(6c)^†[beta-hThr]WQE(6c)[Y(2-aminoethoxy)][2-Nal][2-Me-Leu]E(1c)[Dab][3-(3-Pyridyl)-Ala]-[NHMe]], the “% displacement (hIL-23R NIuc)” value amounted to 101% and half-maximal inhibition (IC50) was put at 0.061 nM.

Consider `Cc1ccc(C[C@@H]2NC(=O)[C@@H]3CCC(=O)N[C@@H](CCCCNC(=O)[C@@H](NC(=O)CCCCCc4cccnc4)CCNC(=O)[C@](C)(CC(C)C)NC(=O)[C@H](Cc4ccc5ccccc5c4)NC2=O)C(=O)N[C@@H]([C@@H](C)O)C(=O)N[C@@H](C(C)C)C(=O)N[C@@H](Cc2c[nH]c4ccccc24)C(=O)N[C@@H](CCC(N)=O)C(=O)N3)cc1` [Compound 25, K(1c)(6c)^†TVWQE(6c)[Y(2-aminoethoxy)][2-Nal][2-Me-Leu][iso-Dab](1c)^‡-[6-(3-pyridyl)hexanoyl]] (KTVWQE[Phe(4-Me)][2Nal][αMeL]; linker 1-C via X23; lactam N-6), for which the Emax is 91%.

With `CC[C@H](C)[C@@H]1NC(=O)[C@@H]2CCCCNC(=O)CC[C@@H](C(=O)N[C@@H](CCN)C(=O)N[C@@H](Cc3cccnc3)C(N)=O)NC(=O)[C@](C)(C(C)C)NC(=O)[C@H](Cc3ccc4ccccc4c3)NC(=O)[C@H](Cc3ccc(C)cc3)NC(=O)[C@H](CCC(=O)N2)NC(=O)[C@H](CCC(N)=O)NC(=O)[C@H](Cc2c[nH]c3ccccc23)NC(=O)[C@H](C(C)C)NC1=O` [Compound 16, K(1c)(6c)^†IVWQE(6c)[F(4-Me)][2-Nal][2-Me-Val]E(1c)[Dab][3-(3-Pyridyl)-Ala]-[NH2]], the half-maximal inhibitory concentration (IC50) (usually the midpoint of a concentration-inhibition curve) was 0.099 nM and the Emax is 101%. The corresponding values for `CC(C)[C@@H]1NC(=O)[C@H]([C@@H](C)O)NC(=O)[C@@H]2CCCCNC(=O)CC[C@@H]3NC(=O)[C@H](CCCCNC(=O)[C@H](Cc4cccnc4)NC(=O)[C@H](CCN)NC3=O)NC(=O)[C@H](Cc3ccc4ccccc4c3)NC(=O)[C@H](Cc3ccc(OCCN)cc3)NC(=O)[C@H](CCC(=O)N2)NC(=O)[C@H](CCC(N)=O)NC(=O)[C@H](Cc2c[nH]c3ccccc23)NC1=O` [Compound 77, K(1c)(6c)^†TVWQE(6c)[Y(2-aminoethoxy)][2-Nal]K(7c)E(1c)[Dab][3-(3-Pyridyl)-Ala](7c)^‡] are 9.9 nM and 97%. In the same order, the values of `CNC(=O)[C@H](Cc1cccnc1)NC(=O)[C@H](CCN)NC(=O)[C@@H]1CCC(=O)NCCCC[C@@H]2C(=O)N[C@@H]([C@@H](C)O)C(=O)N[C@@H](Cc3c[nH]c4ccccc34)C(=O)N[C@@H](CCC(N)=O)C(=O)N[C@@H](CCc3cn2nn3)C(=O)N[C@@H](Cc2ccc(OCCN)cc2)C(=O)N[C@@H](Cc2ccc3ccccc3c2)C(=O)N[C@@](C)(CC(C)C)C(=O)N1` [Compound 42, [{d}(N3)-K](1c)(6g)^†TWQ[Hpg](6g)[Y(2-aminoethoxy)][2-Nal][2-Me-Leu]E(1c)[Dab][3-(3-Pyridyl)-Ala]-[NHMe]] are 1.9 nM and 96%.

As for `CC(C)C[C@]1(C)NC(=O)[C@H](Cc2ccc3ccccc3c2)NC(=O)[C@H](Cc2ccc(OCCN)cc2)NC(=O)[C@@H]2CCC(=O)N[C@H](CCCCCNC(=O)CC[C@@H](C(=O)N[C@@H](CCN)C(=O)N[C@@H](Cc3cccnc3)C(N)=O)NC1=O)C(=O)N[C@@H]([C@@H](C)O)C(=O)N[C@@H](C(C)C)C(=O)N[C@@H](Cc1c[nH]c3ccccc13)C(=O)N[C@@H](CCC(N)=O)C(=O)N2` [Compound 5, [{d}hLys](1c)(6c)^†TVWQE(6c)[Y(2-aminoethoxy)][2-Nal][2-Me-Leu]E(1c)[Dab][3-(3-Pyridyl)-Ala]-[NH2]], the 50% inhibitory concentration (IC50) was determined as 0.037 nM and the Emax came to 98%. Regarding `CNC(=O)[C@H](Cc1cccnc1)NC(=O)[C@H](CCN)NC(=O)[C@@H]1CCNC(=O)[C@@H]2CCC(=O)N[C@@H](Cc3c[nH]c4ccccc34)C(=O)N[C@@H](CCC(N)=O)C(=O)N[C@@H](CCC(=O)N2)C(=O)N[C@@H](Cc2ccc(OCCN)cc2)C(=O)N[C@@H](Cc2ccc3ccccc3c2)C(=O)N[C@@](C)(CC(C)C)C(=O)N1` [Compound 107, [iso-Glu](1c)^‡(6c)^†WQE(6c)[Y(2-aminoethoxy)][2-Nal][2-Me-Leu][Dab](1c)[Dab][3-(3-Pyridyl)-Ala]-[NHMe]] (WQE[AEF][2Nal][αMeL][Dab][Dab][3Pal]-NHMe; linker N-3-7 via X14), the Emax came out at 97%. Turning to `CC(C)C[C@]1(C)NC(=O)[C@H](Cc2ccc3ccccc3c2)NC(=O)[C@H](Cc2ccc(OCCN)cc2)NC(=O)[C@@H]2CCC(=O)N[C@@H](CCCCNC(=O)CC[C@@H](C(=O)NCCCCc3cccnc3)NC1=O)C(=O)N[C@@H](CO)C(=O)N[C@@H](C(C)C)C(=O)N[C@@H](Cc1c[nH]c3ccccc13)C(=O)N[C@@H](CCC(N)=O)C(=O)N2` [Compound 30, K(1c)(6c)^†SVWQE(6c)[Y(2-aminoethoxy)][2-Nal][2-Me-Leu]E(1c)-[NH-4-(pyridin-3-yl)butanyl]], the “% displacement (hIL-23R NIuc)” value was found to be 101% and the IC50 stood at 20 nM. In the case of `CCCCc1ccc(C[C@@H]2NC(=O)[C@@H]3CCC(=O)N[C@@H](CCCCNC(=O)CC[C@@H](C(=O)N[C@@H](CCN)C(=O)N[C@@H](Cc4cccnc4)C(=O)NC)NC(=O)[C@](C)(CC(C)C)NC(=O)[C@H](Cc4ccc5ccccc5c4)NC2=O)C(=O)N[C@@H]([C@@H](C)CC)C(=O)N[C@@H](C(C)C)C(=O)N[C@@H](Cc2c[nH]c4ccccc24)C(=O)N[C@@H](CCC(N)=O)C(=O)N3)cc1` [Compound 33, K(1c)(6c)^†IVWQE(6c)[F(4-Bu)][2-Nal][2-Me-Leu]E(1c)[Dab][3-(3-Pyridyl)-Ala]-[NHMe]], the half-maximal inhibitory concentration (IC50) is 0.76 nM and the Emax worked out at 102%. The corresponding values for `COc1ccc(C[C@@H]2NC(=O)[C@@H]3CCC(=O)N[C@@H](CCCCNC(=O)CC[C@@H](C(=O)N[C@@H](CCCCNC(=O)Cc4ccnc(F)c4)C(N)=O)NC(=O)[C@](C)(CC(C)C)NC(=O)[C@H](Cc4ccc5ccccc5c4)NC2=O)C(=O)N[C@@H]([C@@H](C)O)C(=O)N[C@@H](C(C)C)C(=O)N[C@@H](Cc2c[nH]c4ccccc24)C(=O)N[C@@H](CCC(N)=O)C(=O)N3)cc1` [Compound 57, K(1c)(6c)^†TVWQE(6c)[Y(Me)][2-Nal][2-Me-Leu]E(1c)[K(4-pyridyl-3-fluoroacetyl)]-[NH2]] are 790 nM and 93%.

With `CC[C@H](C)[C@@H]1NC(=O)[C@@H]2CCCCNC(=O)CC[C@@H](C(=O)N[C@@H](CCN)C(=O)N[C@@H](Cc3cccnc3)C(=O)NC)NC(=O)[C@](C)(CC(C)C)NC(=O)[C@H](Cc3ccc4ccccc4c3)NC(=O)[C@H](Cc3ccc(OCc4ccccc4)cc3)NC(=O)[C@H](CCC(=O)N2)NC(=O)[C@H](CCC(N)=O)NC(=O)[C@H](Cc2c[nH]c3ccccc23)NC(=O)[C@H](C(C)C)NC1=O` [Compound 34, K(1c)(6c)^†IVWQE(6c)[Y(Bn)][2-Nal][2-Me-Leu]E(1c)[Dab][3-(3-Pyridyl)-Ala]-[NHMe]], half-maximal inhibition (IC50) required 0.62 nM and the Emax amounted to 100%. The corresponding values for `CNC(=O)[C@H](Cc1cccnc1)NC(=O)[C@H](CCN)NC(=O)[C@@H]1CCC(=O)N[C@H]2CCCCNC(=O)CC[C@H](NC(=O)[C@H](CCC(N)=O)NC(=O)[C@H](Cc3c[nH]c4ccccc34)NC2=O)C(=O)N[C@@H](Cc2ccc(OCCN)cc2)C(=O)N[C@@H](Cc2ccc3ccccc3c2)C(=O)N[C@@](C)(CC(C)C)C(=O)N1` [Compound 102, [iso-Lys](1c)^t(6c)WQE(6c)[Y(2-aminoethoxy)][2-Nal][2-Me-Leu]E(1c)[Dab][3-(3-Pyridyl)-Ala]-[NHMe]] (KWQE[AEF][2Nal][αMeL]E[Dab][3Pal]-NHMe; lactam 1-4, N-8) are 4.5 nM and 97%.

In the case of `CNC(=O)[C@H](Cc1cccnc1)NC(=O)[C@H](CCN)NC(=O)[C@@H]1CCCCNC(=O)[C@H]2CCC(=O)N[C@@H](Cc3c[nH]c4ccccc34)C(=O)N[C@@H](CCC(N)=O)C(=O)N[C@@H](CCC(=O)N2)C(=O)N[C@@H](Cc2ccc(OCCN)cc2)C(=O)N[C@@H](Cc2ccc3ccccc3c2)C(=O)N[C@@](C)(CC(C)C)C(=O)N1` [Compound 108, [{d}iso-Glu](1c)^‡(6c)^†WQE(6c)[Y(2-aminoethoxy)][2-Nal][2-Me-Leu]K(1c)[Dab][3-(3-Pyridyl)-Ala]-[NHMe]] (WQE[AEF][2Nal][αMeL]K[Dab][3Pal]-NHMe; linker N-3-7 via X8), the IC50 is 16 nM and the Emax amounted to 101%.
